Laboratory results reported in patent US20090054486A1, “POLYMORPHIC FORM XVI OF FEXOFENADINE HYDROCHLORIDE” (Teva Pharmaceuticals USA, Inc., priority 2002, published 2009).
Structures can show the parent of a compound that is named as a salt.

Assay: Storage stability against transformation to other crystalline forms
Format: physicochemical
Description: Fexofenadine hydrochloride Form XVI is substantially stable during storage. Fexofenadine hydrochloride Form XVI is stable against transformation to other crystalline forms upon storage at relative humidity of up to about 100% for at least about 1 week, and storage at about 40° C. and about 75% relative humidity for at least about 6 months. The conversion is preferably less than about 5%, more preferably less than about 2% by weight.
In another aspect, the present invention provides for processes for preparation of fexofenadine hydrochloride Form XVI, which allow preparing fexofenadine HCl form XVI substantially free of other polymorphic forms of fexofenadine HCl, including amorphous form. As used herein, “substantially free” refers to less than about 5% on a weight basis, preferably less than about 2%, weight of polymorphic forms other than Form XVI compared to the weight of all the polymorphic forms, including Form XVI. A suitable method for determining the presence of other polymorphic forms is with X-Ray Powder diffraction.

CC(C)(C(=O)O)c1ccc(C(O)CCCN2CCC(C(O)(c3ccccc3)c3ccccc3)CC2)cc1 (stereo not drawn) [Fexofenadine hydrochloride Form XVI, 4-[4-[4-(hydroxydiphenylmethyl)-1-piperidinyl]-1-hydroxybutyl]-α,α-dimethylbenzeneacetic acid]
time stable against transformation to other crystalline forms upon storage (storage at about 40° C. and about 75% relative humidity): at least 6 months
time stable against transformation to other crystalline forms upon storage (storage at relative humidity of up to about 100%): at least 1 week
